# Results as given in patent US20220273671A1, “TOPICAL FORMULATIONS FOR TREATMENT OF PERIPHERAL NEUROPATHIES” (priority 2019, published 2022).
# Columns and labels:
# M1R = target: T1, M1R (Homo sapiens, UniProt P11229); details: cited from earlier work
# T1 sequence (P11229 1-460): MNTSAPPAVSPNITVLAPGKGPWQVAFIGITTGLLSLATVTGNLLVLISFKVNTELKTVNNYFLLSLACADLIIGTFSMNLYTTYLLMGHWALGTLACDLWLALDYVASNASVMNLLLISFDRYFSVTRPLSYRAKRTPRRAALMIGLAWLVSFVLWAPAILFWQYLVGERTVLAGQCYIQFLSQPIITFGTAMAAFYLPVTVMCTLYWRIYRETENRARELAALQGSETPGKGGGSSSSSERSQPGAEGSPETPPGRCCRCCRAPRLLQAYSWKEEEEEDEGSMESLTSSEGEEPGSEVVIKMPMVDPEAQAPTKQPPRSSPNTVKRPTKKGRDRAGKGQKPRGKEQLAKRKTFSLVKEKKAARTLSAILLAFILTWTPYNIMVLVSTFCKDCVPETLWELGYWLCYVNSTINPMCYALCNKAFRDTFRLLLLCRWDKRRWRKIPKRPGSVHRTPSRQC
# [1] = Plasma pharmacokinetics of topical pirenzepine formulations in healthy volunteers, 14 days; details: any subject, any time point, any day
# Procedure: PK: Blood samples were collected for the determination of pirenzepine concentration at the following nominal times:
# Blood samples on Days 1, 7, and 14 were collected via either the indwelling intravenous (IV) cannula to reduce the frequency of direct venipuncture (at the discretion of the Investigator).
# A validated liquid chromatography tandem mass-spectroscopy method (LLOQ: 0.1 ng/mL and ULOQ: 200 ng/mL) was used to determine the concentration of pirenzepine in plasma. […] For the pirenzepine concentration analysis in biopsy samples, a qualified method (LLOQ 1.00 mg/mL) was used.
# Pirenzepine concentrations in plasma and skin biopsies were evaluated using Phoenix™ WinNonlin® version 8.0 (Pharsight Corporation, USA) and Microsoft® Excel® 2010 (Microsoft Corporation, USA).
# Pharmacokinetic Population: According to the statistical analysis plan, the PK population comprised all randomized subjects with evaluable plasma concentrations of pirenzepine (ie, subjects with plasma concentrations considered sufficient and interpretable [at the discretion of the pharmacokineticist]). […] Any exclusion from the PK population was determined by the pharmacokineticist on blinded data, after database lock and prior to unblinding the study. […]
# The goodness of fit of the regression was evaluated using the adjusted square of the correlation coefficient (R2 adjusted). […]
# [2] = cited from earlier work
# diabetic mice = details: topical; cited from earlier work
compound,measurement,setting,value
O=C(CCNS(=O)(=O)c1cccc2nsnc12)N1CCN(c2ccncc2)CC1 [VU0255035],"selectivity to M1R relative to M2, M3, M4 and M5 receptors",M1R,75 times
O=C1Nc2cccnc2N(C(=O)CN2CCNCC2)c2ccccc21 [desmethyl pirenzepine],plasma level of the primary metabolite,[1],not quantifiable
CN1CCN(CC(=O)N2c3ccccc3C(=O)Nc3cccnc32)CC1 [pirenzepine],Log P,[2],0.6
same,Solubility,[2],68.2 µg/mL
same,intraepidermal nerve fibers,diabetic mice,prevented and reversed loss of intraepidermal nerve fibers
same,motor nerve conduction velocity,diabetic mice,prevented deficits in motor nerve conduction velocity
same,sub-epidermal nerve plexus,diabetic mice,prevented loss of sub-epidermal nerve plexus
same,tactile allodynia,diabetic mice,prevented tactile allodynia
same,thermal hypoalgesia,diabetic mice,prevented and reversed the development of thermal hypoalgesia
